Source: patent publication US20260022142A1, “MACROCYCLIC IMMUNOMODULATORS” (Bristol-Myers Squibb Company, priority 2022, published 2026)
Bridge positions count the residues as written; N and C are the ends. Square brackets hold non-standard residues; d marks the D form. Peptide text beside a SMILES is read from it. * marks the point of attachment. Tyr(3,5-F2) = N[C@@H](Cc1cc(F)c(O)c(F)c1)C(=O)O; Phe(4-CONH2) = NC(=O)c1ccc(C[C@H](N)C(=O)O)cc1; Bip = N[C@@H](Cc1ccc(-c2ccccc2)cc1)C(=O)O; Phe(3-OMe) = COc1cccc(C[C@H](N)C(=O)O)c1; Phe(4-CN) = N#Cc1ccc(C[C@H](N)C(=O)O)cc1; Phe(3-F) = N[C@@H](Cc1cccc(F)c1)C(=O)O; Phe(3-Me) = Cc1cccc(C[C@H](N)C(=O)O)c1; Phe(4-Me) = Cc1ccc(C[C@H](N)C(=O)O)cc1; Phe(2-F) = N[C@@H](Cc1ccccc1F)C(=O)O; Phe(2-Me) = Cc1ccccc1C[C@H](N)C(=O)O; Val(3-OH) = CC(C)(O)[C@H](N)C(=O)O; 4Pal = N[C@@H](Cc1ccncc1)C(=O)O; 2Thi = N[C@@H](Cc1cccs1)C(=O)O; Cha = N[C@@H](CC1CCCCC1)C(=O)O; Gly(cPr) = N[C@H](C(=O)O)C1CC1; Phg = N[C@H](C(=O)O)c1ccccc1; Carboxymethyl = O=C(O)C*; Orn = NCCC[C@H](N)C(=O)O; Aun = NCCCCCCCCCCC(=O)O; Dab = NCC[C@H](N)C(=O)O

Target: T1, PD-1/PD-L1 interaction (PE-labeled human PD-L1-Ig binding to Jurkat cell line over-expressing human PD-1) (Homo sapiens, UniProt Q15116)
T1 construct: expressed in transfected cells; host or cells: Jurkat
Test: Jurkat-PD-1 Cell Binding High-Content Screening Assay (CBA)
Type: cell-based
Conditions: Jurkat cell line over-expressing human PD-1; PE-labeled PD-L1-Ig 20 nM final; read-out: Jurkat hPD1-PDL1 IC50
In short: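 Jurkat cells stably over-expressing human PD-1 were seeded in DMEM with 10% fetal calf serum and pre-incubated with compound for 2 h at 37° C. PE-labeled human PD-L1-Ig was then added at 20 nM final for 1 hour, after which cells were fixed with paraformaldehyde, Hoechst-stained and imaged by high-content microscopy.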

T1 sequence (Q15116 25-288): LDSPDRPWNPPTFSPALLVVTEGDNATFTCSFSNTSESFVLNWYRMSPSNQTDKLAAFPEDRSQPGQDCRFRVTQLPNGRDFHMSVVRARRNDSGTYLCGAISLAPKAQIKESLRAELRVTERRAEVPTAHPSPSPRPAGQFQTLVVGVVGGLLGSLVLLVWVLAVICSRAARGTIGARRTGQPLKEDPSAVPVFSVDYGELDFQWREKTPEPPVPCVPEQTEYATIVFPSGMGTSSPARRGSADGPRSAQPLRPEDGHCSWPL

Row | IC50 | Structure (SMILES)
1 | 13.3 nM | Cc1cccc(C[C@@H]2NC(=O)[C@H](CC(=O)O)NC(=O)[C@H](Cc3ccc(OCC(=O)O)cc3)NC(=O)[C@H](Cc3ccc(C#N)cc3)NC(=O)CSC[C@@H](C(=O)N[C@@H](CCN)C(=O)NCCCCCCCCCCC(=O)O)NC(=O)[C@H](CO)NC(=O)[C@H](C(C)(C)O)NC(=O)[C@H](CC3CCCCC3)NC(=O)[C@H](CCN)NC(=O)[C@@H](CC(C)C)NC(=O)[C@H](CCCN)NC(=O)[C@H](Cc3ccc(OCC(=O)O)cc3)NC(=O)[C@H](Cc3ccc(-c4ccccc4)cc3)NC(=O)[C@H](Cc3ccc(OCC(=O)O)cc3)NC2=O)c1 [Compound 2183] ({CH2CO}-[Phe(4-CN)]Y(Carboxymethyl)D[Phe(3-Me)]Y(Carboxymethyl)[Bip]Y(Carboxymethyl)[Orn][dL][Dab][Cha][Val(3-OH)]SC[Dab][Aun]-OH; thioether N-14)
2 | 10.3 nM | Cc1cccc(C[C@@H]2NC(=O)[C@H](CC(=O)O)NC(=O)[C@H](Cc3ccc(OCC(=O)O)cc3)NC(=O)[C@H](Cc3ccncc3)NC(=O)CSC[C@@H](C(=O)N[C@@H](CCN)C(=O)NCCCCCCCCCCC(=O)O)NC(=O)[C@H](CO)NC(=O)[C@H](C(C)(C)O)NC(=O)[C@H](CC3CCCCC3)NC(=O)[C@H](CCN)NC(=O)[C@@H](CC(C)C)NC(=O)[C@H](CCCN)NC(=O)[C@H](Cc3ccc(OCC(=O)O)cc3)NC(=O)[C@H](Cc3ccc(-c4ccccc4)cc3)NC(=O)[C@H](Cc3ccccc3F)NC2=O)c1 [Compound 2184] ({CH2CO}-[4Pal]Y(Carboxymethyl)D[Phe(3-Me)][Phe(2-F)][Bip]Y(Carboxymethyl)[Orn][dL][Dab][Cha][Val(3-OH)]SC[Dab][Aun]-OH; thioether N-14)
3 | 9.6 nM | Cc1cccc(C[C@@H]2NC(=O)[C@H](CC(=O)O)NC(=O)[C@H](Cc3ccc(OCC(=O)O)cc3)NC(=O)[C@H](Cc3ccncc3)NC(=O)CSC[C@@H](C(=O)N[C@@H](CCN)C(=O)NCCCCCCCCCCC(=O)O)NC(=O)[C@H](CO)NC(=O)[C@H](C(C)(C)O)NC(=O)[C@H](CC3CCCCC3)NC(=O)[C@H](CCN)NC(=O)[C@@H](CC(C)C)NC(=O)[C@H](CCCN)NC(=O)[C@H](Cc3ccc(OCC(=O)O)cc3)NC(=O)[C@H](Cc3ccc(-c4ccccc4)cc3)NC(=O)[C@H](Cc3cc(F)c(O)c(F)c3)NC2=O)c1 [Compound 2185] ({CH2CO}-[4Pal]Y(Carboxymethyl)D[Phe(3-Me)][Tyr(3,5-F2)][Bip]Y(Carboxymethyl)[Orn][dL][Dab][Cha][Val(3-OH)]SC[Dab][Aun]-OH; thioether N-14)
4 | 14 nM | COc1cccc(C[C@@H]2NC(=O)[C@H](Cc3cccc(C)c3)NC(=O)[C@H](CC(=O)O)NC(=O)[C@H](Cc3ccc(OCC(=O)O)cc3)NC(=O)[C@H](Cc3ccncc3)NC(=O)CSC[C@@H](C(=O)N[C@@H](CCN)C(=O)NCCCCCCCCCCC(=O)O)NC(=O)[C@H](CO)NC(=O)[C@H](C(C)(C)O)NC(=O)[C@H](CC3CCCCC3)NC(=O)[C@H](CCN)NC(=O)[C@@H](CC(C)C)NC(=O)[C@H](CCCN)NC(=O)[C@H](Cc3ccc(OCC(=O)O)cc3)NC(=O)[C@H](Cc3ccc(-c4ccccc4)cc3)NC2=O)c1 [Compound 2186] ({CH2CO}-[4Pal]Y(Carboxymethyl)D[Phe(3-Me)][Phe(3-OMe)][Bip]Y(Carboxymethyl)[Orn][dL][Dab][Cha][Val(3-OH)]SC[Dab][Aun]-OH; thioether N-14)
5 | 31.3 nM | Cc1cccc(C[C@@H]2NC(=O)[C@H](CC(=O)O)NC(=O)[C@H](Cc3ccc(OCC(=O)O)cc3)NC(=O)[C@H](Cc3ccncc3)NC(=O)CSC[C@@H](C(=O)N[C@@H](CCN)C(=O)NCCCCCCCCCCC(=O)O)NC(=O)[C@H](CO)NC(=O)[C@H](C(C)(C)O)NC(=O)[C@H](CC3CCCCC3)NC(=O)[C@H](CCN)NC(=O)[C@@H](CC(C)C)NC(=O)[C@H](CCCN)NC(=O)[C@H](Cc3ccc(OCC(=O)O)cc3)NC(=O)[C@H](Cc3ccc(-c4ccccc4)cc3)NC(=O)[C@H](C(C)(C)O)NC2=O)c1 [Compound 2187] ({CH2CO}-[4Pal]Y(Carboxymethyl)D[Phe(3-Me)][Val(3-OH)][Bip]Y(Carboxymethyl)[Orn][dL][Dab][Cha][Val(3-OH)]SC[Dab][Aun]-OH; thioether N-14)
6 | 9.4 nM | Cc1cccc(C[C@@H]2NC(=O)[C@H](CC(=O)O)NC(=O)[C@H](Cc3ccc(OCC(=O)O)cc3)NC(=O)[C@H](Cc3ccncc3)NC(=O)CSC[C@@H](C(=O)N[C@@H](CCN)C(=O)NCCCCCCCCCCC(=O)O)NC(=O)[C@H](CO)NC(=O)[C@H](C(C)(C)O)NC(=O)[C@H](CC3CCCCC3)NC(=O)[C@H](CCN)NC(=O)[C@@H](CC(C)C)NC(=O)[C@H](CCCN)NC(=O)[C@H](Cc3ccc(OCC(=O)O)cc3)NC(=O)[C@H](Cc3ccc(-c4ccccc4)cc3)NC(=O)[C@H](Cc3cccs3)NC2=O)c1 [Compound 2188] ({CH2CO}-[4Pal]Y(Carboxymethyl)D[Phe(3-Me)][2Thi][Bip]Y(Carboxymethyl)[Orn][dL][Dab][Cha][Val(3-OH)]SC[Dab][Aun]-OH; thioether N-14)
7 | 18.2 nM | Cc1cccc(C[C@@H]2NC(=O)[C@H](CC(=O)O)NC(=O)[C@H](Cc3ccc(OCC(=O)O)cc3)NC(=O)[C@H](Cc3ccncc3)NC(=O)CSC[C@@H](C(=O)N[C@@H](CCN)C(=O)NCCCCCCCCCCC(=O)O)NC(=O)[C@H](CO)NC(=O)[C@H](C(C)(C)O)NC(=O)[C@H](CC3CCCCC3)NC(=O)[C@H](CCN)NC(=O)[C@@H](CC(C)C)NC(=O)[C@H](CCCN)NC(=O)[C@H](Cc3ccc(OCC(=O)O)cc3)NC(=O)[C@H](Cc3ccc(-c4ccccc4)cc3)NC(=O)[C@H](C3CC3)NC2=O)c1 [Compound 2189] ({CH2CO}-[4Pal]Y(Carboxymethyl)D[Phe(3-Me)][Gly(cPr)][Bip]Y(Carboxymethyl)[Orn][dL][Dab][Cha][Val(3-OH)]SC[Dab][Aun]-OH; thioether N-14)
8 | 19.6 nM | Cc1ccc(C[C@@H]2NC(=O)[C@H](Cc3cccc(C)c3)NC(=O)[C@H](CC(=O)O)NC(=O)[C@H](Cc3ccc(OCC(=O)O)cc3)NC(=O)[C@H](Cc3ccncc3)NC(=O)CSC[C@@H](C(=O)N[C@@H](CCN)C(=O)NCCCCCCCCCCC(=O)O)NC(=O)[C@H](CO)NC(=O)[C@H](C(C)(C)O)NC(=O)[C@H](CC3CCCCC3)NC(=O)[C@H](CCN)NC(=O)[C@@H](CC(C)C)NC(=O)[C@H](CCCN)NC(=O)[C@H](Cc3ccc(OCC(=O)O)cc3)NC(=O)[C@H](Cc3ccc(-c4ccccc4)cc3)NC2=O)cc1 [Compound 2190] ({CH2CO}-[4Pal]Y(Carboxymethyl)D[Phe(3-Me)][Phe(4-Me)][Bip]Y(Carboxymethyl)[Orn][dL][Dab][Cha][Val(3-OH)]SC[Dab][Aun]-OH; thioether N-14)
9 | 20 nM | Cc1cccc(C[C@@H]2NC(=O)[C@H](CC(=O)O)NC(=O)[C@H](Cc3ccc(OCC(=O)O)cc3)NC(=O)[C@H](Cc3ccncc3)NC(=O)CSC[C@@H](C(=O)N[C@@H](CCN)C(=O)NCCCCCCCCCCC(=O)O)NC(=O)[C@H](CO)NC(=O)[C@H](C(C)(C)O)NC(=O)[C@H](CC3CCCCC3)NC(=O)[C@H](CCN)NC(=O)[C@@H](CC(C)C)NC(=O)[C@H](CCCN)NC(=O)[C@H](Cc3ccc(OCC(=O)O)cc3)NC(=O)[C@H](Cc3ccc(-c4ccccc4)cc3)NC(=O)[C@H](c3ccccc3)NC2=O)c1 [Compound 2191] ({CH2CO}-[4Pal]Y(Carboxymethyl)D[Phe(3-Me)][Phg][Bip]Y(Carboxymethyl)[Orn][dL][Dab][Cha][Val(3-OH)]SC[Dab][Aun]-OH; thioether N-14)
10 | 7.7 nM | Cc1cccc(C[C@@H]2NC(=O)[C@H](CC(=O)O)NC(=O)[C@H](Cc3ccc(OCC(=O)O)cc3)NC(=O)[C@H](Cc3ccncc3)NC(=O)CSC[C@@H](C(=O)N[C@@H](CCN)C(=O)NCCCCCCCCCCC(=O)O)NC(=O)[C@H](CO)NC(=O)[C@H](C(C)(C)O)NC(=O)[C@H](CC3CCCCC3)NC(=O)[C@H](CCN)NC(=O)[C@@H](CC(C)C)NC(=O)[C@H](CCCN)NC(=O)[C@H](Cc3ccc(OCC(=O)O)cc3)NC(=O)[C@H](Cc3ccc(-c4ccccc4)cc3)NC(=O)[C@H](Cc3ccc(C(N)=O)cc3)NC2=O)c1 [Compound 2192] ({CH2CO}-[4Pal]Y(Carboxymethyl)D[Phe(3-Me)][Phe(4-CONH2)][Bip]Y(Carboxymethyl)[Orn][dL][Dab][Cha][Val(3-OH)]SC[Dab][Aun]-OH; thioether N-14)
11 | 21.7 nM | Cc1cccc(C[C@@H]2NC(=O)[C@H](CC(=O)O)NC(=O)[C@H](Cc3ccc(OCC(=O)O)cc3)NC(=O)[C@H](Cc3ccncc3)NC(=O)CSC[C@@H](C(=O)N[C@@H](CCN)C(=O)NCCCCCCCCCCC(=O)O)NC(=O)[C@H](CO)NC(=O)[C@H](C(C)(C)O)NC(=O)[C@H](CC3CCCCC3)NC(=O)[C@H](CCN)NC(=O)[C@@H](CC(C)C)NC(=O)[C@H](CCCN)NC(=O)[C@H](Cc3ccc(OCC(=O)O)cc3)NC(=O)[C@H](Cc3ccc(-c4ccccc4)cc3)NC(=O)[C@H](Cc3ccccc3C)NC2=O)c1 [Compound 2193] ({CH2CO}-[4Pal]Y(Carboxymethyl)D[Phe(3-Me)][Phe(2-Me)][Bip]Y(Carboxymethyl)[Orn][dL][Dab][Cha][Val(3-OH)]SC[Dab][Aun]-OH; thioether N-14)
12 | 12.9 nM | Cc1cccc(C[C@@H]2NC(=O)[C@H](CC(=O)O)NC(=O)[C@H](Cc3ccc(OCC(=O)O)cc3)NC(=O)[C@H](Cc3ccncc3)NC(=O)CSC[C@@H](C(=O)N[C@@H](CCN)C(=O)NCCCCCCCCCCC(=O)O)NC(=O)[C@H](CO)NC(=O)[C@H](C(C)(C)O)NC(=O)[C@H](CC3CCCCC3)NC(=O)[C@H](CCN)NC(=O)[C@@H](CC(C)C)NC(=O)[C@H](CCCN)NC(=O)[C@H](Cc3ccc(OCC(=O)O)cc3)NC(=O)[C@H](Cc3ccc(-c4ccccc4)cc3)NC(=O)[C@H](Cc3cccc(F)c3)NC2=O)c1 [Compound 2194] ({CH2CO}-[4Pal]Y(Carboxymethyl)D[Phe(3-Me)][Phe(3-F)][Bip]Y(Carboxymethyl)[Orn][dL][Dab][Cha][Val(3-OH)]SC[Dab][Aun]-OH; thioether N-14)
